Tested on: embryonic stem cells
Assay: Embryonic stem cells treated with NAD+ synthesis inhibitor FK866 and NAD precursors (NAD level, AP activity, apoptosis)
Type: cell-based, human
Protocol: Embryonic stem cells were treated with nicotinamide and related compounds, and after 6 days, protein was isolated from the cells. NAD cycling enzyme was added to and reacted with 20 μg of the protein per each group at room temperature for 5 minutes, and then a NADH developer was added and reacted therewith for 2-3 hours. The absorbance at 450 nm was measured using a microplate reader, and the amount of the […] was quantified.
AP staining was performed using a commercial AP kit (Sigma) according to the manufacturer's instruction. Images of AP-positive cells were recorded with HP Scanjet G4010. Also, bight field images were obtained with an Olympus microscope (IX51, Olympus, Japan).
In order to examine the effect of nicotinamide on a reduction in the apoptosis of human pluripotent stem cells, dual apoptosis assay (Biotium, Hayward, Calif.) was performed. Embryonic stem cells or cells reprogrammed were stained with NucView™488 Caspase-3 Substrate (green)/Annextin V (red) at room temperature for 30 minutes, followed by washing with PBS. At least 4 sections of each sample were imaged with an Olympus fluorescence microscope (IX51, Olympus), and the number of cells stained with green (Caspase-3) was counted to quantify the degree of apoptosis.

SMILES: O=C(/C=C/c1cccnc1)NCCCCC1CCN(C(=O)c2ccccc2)CC1 [FK866]
- apoptosis (treated with FK866): induced
- concentration of NAD in the cells (treated with FK866): decreased
- state of the embryonic stem cells (treated with FK866): differentiated

SMILES: O=C(O)c1cccnc1 [nicotinic acid]
- recovery from damage caused by FK866 (co-treatment with FK866, also in mTeSR1-CDM): recovered

— patent publication US20150072416A1, “METABOLITE FOR IMPROVING PRODUCTION, MAINTENANCE AND PROLIFERATION OF PLURIPOTENT STEM CELLS, COMPOSITION COMPRISING THE SAME, AND METHOD OF CULTURING PLURIPOTENT STEM CELL USING THE SAME” (KOREA RESEARCH INSTITUTE OF BIOSCIENCE AND BIOTENOLOGY, priority 2012, published 2015)
